Test [1] relates to THP-1 cells. As to the kind of experiment: THP-1 cells: morphology, 3H-thymidine uptake, metalloproteinase expression. Type of test: cell-based, human.
Test [2] relates to conscious male rats. As to the kind of experiment: 5-day rhRLX infusion in conscious male rats: MAP, renal function, hematocrit, plasma osmolality, sodium. Format: in vivo, rat. On the procedure: After being placed in the experimental cage, a 100 μl blood sample was drawn from the arterial catheter into a heparinized tube for measurement of baseline plasma osmolality, sodium concentration and hematocrit prior to the administration of any fluids. […] Next, a bolus of inulin (IN, 0.2 ml of a 20% stock solution/100 g BW) and para-aminohippurate (PAH, 0.1 ml of a 2% working solution/100 g BW) was given over 1 minute into the venous catheter followed by a constant infusion of the two reagents at a rate of 0.5 mg/minute per 100 g BW and 0.1 mg/minute per 100 g BW, respectively. The flow rate was 19 μl/minute delivered by a Model 200 Syringe Pump (kd Scientific, Boston Mass.). Finally, the obturator in the bladder catheter was removed, and the latter was extended with a short piece of polyethylene tubing to facilitate the collection of urine.
The technique of urine collection has proven to be reliable. Conrad and Colpoys (1986) J. Clin. Invest. 77:236-245; Danielson and Conrad (1995) J. Clin. Invest. 96:482-490; and Danielson and Conrad (1996) Circ. Res. 79:1161-1166. Indeed, after reaching steady-state in this study, the excretion rates of IN and PAH were 91±3 and 100±4% of their respective infusions. After measuring baseline mean arterial pressure and renal function, an osmotic minipump (model 2ML1, Alza Co., Palo Alto Calif.) containing either recombinant human relaxin (rhRLX; n=12 rats) or vehicle (n=7) was implanted subcutaneously on the back using light ether anesthesia. […] Five days later, mean arterial pressure (MAP), glomerular filtration rate (GFR), effective renal plasma flow (ERPF), and other parameters were again assessed as describe above. At this time, the excretion rates of IN and PAH were 91±3 and 98±2% of their respective infusion rates. At the end of the experiment, 1.0 ml of blood was collected for determination of serum rhRLX.
Inulin concentration in plasma and urine was measured by the anthrone method, and PAH was determined by the method of Bratton and Marshall as modified by Smith. This method is described in Conrad (1984) Kidney Int. 26:24-29, and references cited therein. Plasma sodium was measured by a Kodak Ektachem Instrument (Rochester, N.Y.). Plasma osmolality was determined by freezing point depression (Advanced Osmometer, Model 3MO, Advanced Instruments, Needham Heights Mass.). All urine and plasma samples from MWRI were coded and sent to UNM for analysis of IN, PAH, sodium and osmolality (by L.A.D.). The rhRLX in serum was measured using a quantitative sandwich immunoassay, again in a blinded fashion. Danielson et al. (1999) J. Clin. Invest. 103:525-533.

The record followed here is patent publication US6723702B2, “Use of relaxin treat diseases related to vasoconstriction” (RAS Medical, Inc., priority 2000, dated 2004).

Regarding “rhRLX: recombinant human relaxin, identical in amino acid sequence to the product of the human H2 gene; A chain of 24, B chain of 29 amino acids”, the “morphological changes, such as adherence to plastic or aggregation” value in test [1] is “no observable morphological changes”. Further, in test [2] (4 μg/hour for 5 days (FIG. 3)), the “effect on ERPF” value was “significantly increased”, the “effect on ERVR” value is “reducing”, the “effect on GFR” value is listed as “significantly increased” and the “effect on MAP” value is “did not significantly affect”. In test [2] (rhRLX 4 μg/hour for 5 days), the “HCT (hematocrit), change from the baseline” value is −5.0 ± 0.6 %; the “PNa+ (plasma sodium concentration), change from the baseline” value is recorded as −5.3 ± 0.4 mEq/L; the “Posm (plasma osmolality), change from the baseline” value is recorded as −10.9 ± 1.4 mOsm/kg H2O.
